# Reference: publication PMC11532494 (Nature Communications, 2024)
# Where “and” joins values, the source holds several entries; their conditions need not be identical. Equal entries are not always repeated. Where two headings read alike, the source gives them in different places.
# T1: BsAcuC (2c) (Bacillus subtilis, UniProt P39067)
# T1 construct: made in house; host or cells: E. coli BL21 (DE3)
# T1 sequence (P39067 1-387): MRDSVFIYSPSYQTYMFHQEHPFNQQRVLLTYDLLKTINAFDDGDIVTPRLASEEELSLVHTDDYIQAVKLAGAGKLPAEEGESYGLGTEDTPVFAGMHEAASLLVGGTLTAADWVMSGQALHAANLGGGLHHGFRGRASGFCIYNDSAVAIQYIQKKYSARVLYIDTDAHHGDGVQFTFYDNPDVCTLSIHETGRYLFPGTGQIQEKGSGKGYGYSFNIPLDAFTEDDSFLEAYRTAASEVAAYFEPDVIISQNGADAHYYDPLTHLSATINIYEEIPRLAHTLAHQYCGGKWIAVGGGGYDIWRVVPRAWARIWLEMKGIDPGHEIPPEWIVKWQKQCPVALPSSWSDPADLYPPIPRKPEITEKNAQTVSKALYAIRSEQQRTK
# T2: Legionella pneumophila acetyl-polyamine aminohydrolase (Legionella pneumophila)
# T2 sequence: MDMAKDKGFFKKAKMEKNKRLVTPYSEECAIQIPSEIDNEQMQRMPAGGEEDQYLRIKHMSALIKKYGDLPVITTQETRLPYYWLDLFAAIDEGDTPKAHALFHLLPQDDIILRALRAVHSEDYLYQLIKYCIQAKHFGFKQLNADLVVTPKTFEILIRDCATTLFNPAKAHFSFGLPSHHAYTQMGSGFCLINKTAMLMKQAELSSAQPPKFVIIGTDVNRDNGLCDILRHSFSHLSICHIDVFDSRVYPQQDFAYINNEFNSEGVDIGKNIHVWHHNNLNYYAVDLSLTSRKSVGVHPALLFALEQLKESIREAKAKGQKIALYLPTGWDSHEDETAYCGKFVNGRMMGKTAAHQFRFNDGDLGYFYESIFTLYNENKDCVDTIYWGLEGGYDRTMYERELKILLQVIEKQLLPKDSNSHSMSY
# T3: Legionella cherrii acetyl-polyamine aminohydrolase (Legionella cherrii)
# T3 sequence: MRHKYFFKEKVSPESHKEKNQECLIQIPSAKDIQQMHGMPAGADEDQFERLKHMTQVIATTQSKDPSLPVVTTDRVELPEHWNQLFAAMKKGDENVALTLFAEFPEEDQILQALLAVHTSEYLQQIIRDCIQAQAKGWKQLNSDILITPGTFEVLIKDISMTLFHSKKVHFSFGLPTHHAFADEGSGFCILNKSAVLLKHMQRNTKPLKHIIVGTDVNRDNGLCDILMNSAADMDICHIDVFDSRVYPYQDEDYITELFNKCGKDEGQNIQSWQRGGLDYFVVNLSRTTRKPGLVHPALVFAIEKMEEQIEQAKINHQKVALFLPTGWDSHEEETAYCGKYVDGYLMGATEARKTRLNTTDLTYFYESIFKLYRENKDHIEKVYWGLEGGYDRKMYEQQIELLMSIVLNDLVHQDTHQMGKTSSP
# B1: p53-peptide QPKKac (peptide)
# peptide: QPKK
# B2: DmhA (dimethoate hydrolase) of Rhizorhabdus wittichii (enzyme)
# chain: MARTGFYTDERTFWHATGMQALFLPVGDWVQPPNGTAGADTPDSKRRLLNLAHASGLIRKLTLPEAIPATVEDVCRVHPRDYIDRFKATSDAGGGDLGHLAPFSKGGYEIAMLSCGLAIAAVDDVLSGKVDNAYALCRPAGHHCLADTPMGFCLLANIPIAIEAAKARHGISRVAVVDWDVHHGNGTQSIFYDRADVLTISIHQDRCFPPGYSGAEDRGEGAGLGYNLNVPLPAGAGHDAYVQAFDDIVVPALDDFKPDLIIVASGLDANSVDPLARMLLHSESYRLLTQKMLDAAARLCGGKLVVVHEGGYAEAYVPFCGHALLEALSGERTAVVDPVLEMAEAWQPGPEAAAFHRQWIDRLVADLGK
# notes: also called RwDmhA (1b); RwDmhA
# Key:
# [1] = biological target: Pseudomonas sp. acetylpolyamine amidohydrolase ApaH (Pseudomonas sp.); test: SEC
# [2] = biological target: PsApaH_(1-342) (4) (Pseudomonas sp.); test: crystal structure
# KpHdaH H144A = format: biochemical, Klebsiella pneumoniae
# D20-37KpHdaH = format: biochemical, Klebsiella pneumoniae; settings: substrate with D20-37KpHdaH (L1-loop deletion)
# BsAcuC = BsAcuC (Bacillus subtilis, UniProt P39067); format: biochemical; settings: substrate with BsAcuC
# [3] = biological target: PrpH (propanil hydrolase) of Rhizorhabdus sp. (Rhizorhabdus sp.); test: crystal structure
# RwDmhA (1b) [4] = biological target: T4, RwDmhA (1b) (Rhizorhabdus wittichii, UniProt A0A067XIQ6); test: biochemical; settings: for IC50: 30 nM enzyme, 60 min, 37 °C
# BsAcuC (2c) [5] = biological target: T1, BsAcuC (2c); test: Dose-response inhibition assay; format: biochemical; settings: 40 µM LGKac; for IC50: 200 nM enzyme, 30 min, 37 °C
# Source text: Data was transformed to relative enzyme activity (%) compared to control wells without inhibitor, and fitted to sigmoidal functions with variable slope (Eqs. 3, 4 parameters, h: Hill slope) to afford IC50 values. Assuming fast-on/fast-off competitive inhibition, the Cheng–Prusoff equation (Eq. 4) was employed to transform IC50 data into inhibitory constants (Ki), with KM values as determined previously.3 Res.activity=Res.activitybottom+Res.activitytop−Res.activitybottom/1+10^(logIC50−logI)h 4 Ki=IC50/1+[S]/KM
# LpApaH (3) = LpApaH (3) (Legionella pneumophila, UniProt A0A2S6EWV0); test: biochemical
# PsApaH (4) = PsApaH (4) (Pseudomonas sp. M30-35, UniProt A0A1Y0KY79); test: biochemical
# VcHdaH (5b) = settings: VcHdaH (5b)+TSA control; for RFU: 20 nM enzyme, 37 °C, single replicates; for RFU, mean: mean of n = 3
# RwDmhA (1b) [6] = biological target: T4, RwDmhA (1b); test: biochemical; settings: for remaining activity at 1 µM: inhibitor 1 µM
# KpHdaH (1b) [7] = biological target: T5, KpHdaH (1b) (Klebsiella pneumoniae, UniProt A0A377Z5F6); test: biochemical; settings: for IC50: 15 nM enzyme, 60 min, 37 °C
# (UniProt A0A2N0XRJ0) = test: biochemical; parameters: species or system Vibrio sp.; settings: for IC50: 60 µM QPKKac, 1.5 nM enzyme, 60 min, 37 °C
# Chain of (UniProt A0A2N0XRJ0) (A0A2N0XRJ0 1-372): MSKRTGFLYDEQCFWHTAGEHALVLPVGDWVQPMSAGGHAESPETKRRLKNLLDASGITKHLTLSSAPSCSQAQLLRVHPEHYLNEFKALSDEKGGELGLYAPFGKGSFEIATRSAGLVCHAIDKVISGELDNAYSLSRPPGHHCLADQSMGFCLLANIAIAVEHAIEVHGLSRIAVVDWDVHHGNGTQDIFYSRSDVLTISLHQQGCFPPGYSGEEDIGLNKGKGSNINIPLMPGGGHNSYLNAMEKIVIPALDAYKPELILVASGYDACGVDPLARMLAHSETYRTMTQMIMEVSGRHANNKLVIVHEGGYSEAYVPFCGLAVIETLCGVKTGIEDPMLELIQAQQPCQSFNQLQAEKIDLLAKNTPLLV
# BsAcuC (2c) [8] = biological target: T1, BsAcuC (2c); test: Inhibitor screening assay (10 µM or 1 µM); format: biochemical; settings: pre-screening at 10 µM or 1 µM inhibitor
# Source text: Data was transformed to relative enzyme activity (%) compared to control wells without inhibitors.
# KpHdaH (1b) [9] = biological target: T5, KpHdaH (1b); test: biochemical; settings: for remaining activity at 1 µM: inhibitor 1 µM; for remaining activity at 10 µM: inhibitor 10 µM
# HsHDAC11 (5f) = settings: cited from earlier work
# LcApaH (3) = LcApaH (3) (Legionella cherrii, UniProt A0A0W0SGS1); test: biochemical; settings: for IC50: 0.5 nM enzyme, 30 min, 37 °C
# [10] = biological target: Δ20-37 KpHdaH (Klebsiella pneumoniae)
# [11] = biological target: DmhA (dimethoate hydrolase) of Rhizorhabdus wittichii (Rhizorhabdus wittichii); test: enzyme kinetics with substrate in
# [12] = biological target: Pseudomonas sp. acetylpolyamine amidohydrolase ApaH (Pseudomonas sp.); test: enzyme kinetics with substrate in
# [13] = biological target: T2, Legionella pneumophila acetyl-polyamine aminohydrolase (Legionella pneumophila); test: enzyme kinetics with substrate inhibition (Fluor-de-Lys assay)
# [14] = biological target: T3, Legionella cherrii acetyl-polyamine aminohydrolase (Legionella cherrii); test: as above
# crystal structure = biological target: the molecule itself; test: crystal structure
# [15] = Log[IC50(M)], decadic log of IC50, 60 µM QPKKac
# [16] = decadic log of IC50, read-out: Log[IC50(M)] (converted)
molecule,measurement,setting,value
Pseudomonas sp. acetylpolyamine amidohydrolase ApaH (enzyme),stoichiometry N,[1],2
PsApaH_(1-342) (4) (domain or fragment),stoichiometry N,[2],2
CC(=O)NCCCC[C@H](NC(=O)OC(C)(C)C)C(=O)Nc1ccc2c(C)cc(=O)oc2c1 [Boc-Lys(Ac)-AMC],AMC fluorescence,KpHdaH H144A; substrate with KpHdaH H144A (first of two columns with this head),2059 a.u.
same,AMC fluorescence,KpHdaH H144A; substrate with KpHdaH H144A (second of two columns with this head),31 a.u.
same,AMC fluorescence,D20-37KpHdaH,1597 a.u.
same,AMC fluorescence,BsAcuC,768 a.u.
PrpH (propanil hydrolase) of Rhizorhabdus sp. (enzyme),stoichiometry N,[3],4
"CC(/C=C/C(=O)NO)=C\[C@@H](C)C(=O)c1ccc(N(C)C)cc1 [TSA, trichostatin A]",Ki,RwDmhA (1b) [4],356 nM
same,IC50,"RwDmhA (1b) [4]; IC50, 60 µM QPKKac",8.65e-07 M
same,IC50,RwDmhA (1b) [4]; [15],8.71e-07 M
same,IC50,BsAcuC (2c) [5]; read-out: IC50,5.93e-07 M
same,Ki,BsAcuC (2c) [5]; calculated using the Cheng–Prusoff equation,400 nM
same,IC50,BsAcuC (2c) [5]; [16],6.31e-07 M
same,IC50,LpApaH (3); IC50,7.17e-09 M
same,Ki,LpApaH (3); Ki,2.47 nM
same,IC50,LpApaH (3); Log[IC50(M)],7.94e-09 M
same,IC50,PsApaH (4),≤ 18.1 nM
same,Ki,PsApaH (4),≤ 7.56 nM
same,RFU,"VcHdaH (5b); 10 µM peptide 2 (S2), 45 min",14 RFU and 2 RFU and 59 RFU
same,"RFU, mean",VcHdaH (5b); 10 µM peptide 2 (S2),25 RFU
same,RFU,"VcHdaH (5b); 10 µM peptide 2a (S2a), 30 min",-513 RFU and -208 RFU and -504 RFU
same,"RFU, mean",VcHdaH (5b); 10 µM peptide 2a (S2a),-408 RFU
same,RFU,"VcHdaH (5b); 20 µM Boc-Lys(Ac)-AMC, 30 min",8 RFU and -7 RFU and -73 RFU
same,"RFU, mean",VcHdaH (5b); 20 µM Boc-Lys(Ac)-AMC,-24 RFU
same,remaining activity at 1 µM,RwDmhA (1b) [6]; individual replicates,45.9%
same,remaining activity at 1 µM,RwDmhA (1b) [6]; mean,45.5%
same,remaining activity at 10 µM,"RwDmhA (1b) [6]; inhibitor 10 µM, mean",7.3%
same,IC50,"KpHdaH (1b) [7]; IC50, 60 µM QPKKac",≤ 1.07e-08 M
same,Ki,"KpHdaH (1b) [7]; Ki, calculated using the Cheng–Prusoff equation, 60 µM QPKKac",≤ 2.47 nM
same,IC50,KpHdaH (1b) [7]; [15],≤ 1.07e-08 M
same,Ki,(UniProt A0A2N0XRJ0),11.1 nM
same,IC50,(UniProt A0A2N0XRJ0); read-out: IC50,2.54e-08 M
same,IC50,(UniProt A0A2N0XRJ0); [16],2.51e-08 M
same,"inhibition of BsAcuC (2c) in the initial screen, in words",BsAcuC (2c) [8],only weakly inhibited
same,remaining activity at 1 µM,KpHdaH (1b) [9]; individual replicates,2.1%
same,remaining activity at 1 µM,KpHdaH (1b) [9]; mean,2.15%
same,remaining activity at 10 µM,KpHdaH (1b) [9]; individual replicates,-0.2%
same,remaining activity at 10 µM,KpHdaH (1b) [9]; mean,-0.2%
same,"inhibition of HsHDAC11 (5f), in words",HsHDAC11 (5f),only weakly inhibited
same,IC50,"LcApaH (3); IC50, 40 µM LGKac",1.04e-08 M
same,Ki,"LcApaH (3); Ki, calculated using the Cheng–Prusoff equation, 40 µM LGKac",3.95 nM
same,IC50,"LcApaH (3); Log[IC50(M)], decadic log of IC50, 40 µM LGKac",1.05e-08 M
Δ20-37 KpHdaH (from UniProt A0A377Z5F6 1-371) (enzyme),stoichiometry N,[10],2
B1,Ki,[11],154000 nM
same,Ki,[12],122000 nM
same,Ki,[13],44000 nM
same,Ki,[14],13000 nM
B2,stoichiometry N,crystal structure,4
